Source: patent publication US20100056620A1, “ACTIVE COMPOUND COMBINATIONS WITH INSECTICIDAL AND ACARICIDAL PROPERTIES” (Bayer CropScience AG, priority 2006, published 2010)

Assays:
Assay type in all cases: in vivo
[1] = tested on: fruit tree spider mite (Panonychus ulmi); experiment: Example B: Panonychus ulmi test on plum cuttings, with or without added predatory mites; settings: 20 ppm, active compound alone, spray
Excerpt: The expected activity for a given combination of two active compounds can be calculated (cf. Colby, S. R.; “Calculating Synergistic and Antagonistic Responses of Herbicide Combinations”, Weeds 15, pages 20-22, 1967) as follows:
If • X is the kill rate, expressed in % of the untreated control, when employing active compound A at an application rate of in ppm or g/ha, • Y is the kill rate, expressed in % of the untreated control, when employing active compound B at an application rate of n ppm or g/ha, • E is the kill rate, expressed in % of the untreated control, when employing active compounds A and B at application rates of m and n ppm or g/ha, • then
If the actual insecticidal kill rate is higher than the calculated one, the kill rates of the combination are superadditive, i.e. a synergistic effect is present. In this case, the kill rate that is actually observed has to be higher than the value, calculated using the formula above, for the expected kill rate (E).
To produce a suitable preparation of active compound, 1 part by weight of active compound is mixed with the stated amounts of solvent and emulsifier, and the concentrate is diluted with emulsifier-containing water to the desired concentration. […]
After the desired period of time, the kill of the pest in % is determined. […] The determined kill ratios are entered into Colby's formula.

[2] = tested on: predatory mite Amblyseius andersoni (AMBLAN); experiment: Example A: apple tree field test, count of predatory mites on 25 leaves; settings: apple 'Braeburn', etoxazole 0.05%, I-1-b 0.04%
Protocol: (§1) In 4 replications, in each case five about 10-year-old apple trees (crown height about 2.5 m) of the cultivar “Braeburn” are treated against the red spider Panonychus ulmi (PANOUL). Here, the active compound (I-b-1) (240SC) and the commercial standard etoxazole (110 SC) are applied at the stated application rates in the presence of the predatory mite Amblyseius andersoni (AMBLAN) using a pressure-operated knapsack spray. The water application rate is 400 l/ha. Two applications are carried out at an interval of 42 days.
(§2) Evaluation is carried out 4 days prior to and 6, 29, 43 and 63 days after the 1st treatment by counting the number of adult spider mites and predatory mites on 25 leaves and establishing a prey/predator ratio as a measure for the supporting action of the beneficial species.

[3] = tested on: red spider Panonychus ulmi (PANOUL); experiment: Example A: apple tree field test against red spider, count of adult spider mites on 25 leaves; settings: etoxazole 0.05%, I-1-b 0.04%; for PANOUL (number of adult spider mites on 25 leaves): apple 'Braeburn'; for Prey/Predator ratio: PANOUL/AMBLAN
Protocol: as §1, §2

[4] = 43 d after 1st treatment, two applications 42 days apart
[5] = 63 d after 1st treatment, two applications 42 days apart
[6] = −4 d (4 days prior to 1st treatment)
[7] = 6 d after 1st treatment, AMBLAN present
[8] = 29 d after 1st treatment, AMBLAN present
[9] = −4 d (4 days prior to 1st treatment), AMBLAN present

| Structure (SMILES) | Kill in % after 7 d [1] | AMBLAN (number of predatory mites on 25 leaves) ([2]; 6 d after 1st treatment) | AMBLAN (number of predatory mites on 25 leaves) ([2]; 29 d after 1st treatment) | AMBLAN (number of predatory mites on 25 leaves) [2, 4] | AMBLAN (number of predatory mites on 25 leaves) [2, 5] | AMBLAN (number of predatory mites on 25 leaves) [2, 6] | PANOUL (number of adult spider mites on 25 leaves) [3, 7] | PANOUL (number of adult spider mites on 25 leaves) [3, 8] | PANOUL (number of adult spider mites on 25 leaves) [3, 4] | PANOUL (number of adult spider mites on 25 leaves) [3, 5] | Prey/Predator ratio ([3]; 6 d after 1st treatment) | Prey/Predator ratio ([3]; 29 d after 1st treatment) | Prey/Predator ratio ([3]; 43 d after 1st treatment) | Prey/Predator ratio ([3]; 63 d after 1st treatment) | Prey/Predator ratio [3, 6] | PANOUL (number of adult spider mites on 25 leaves) [3, 9] |
| --- | --- | --- | --- | --- | --- | --- | --- | --- | --- | --- | --- | --- | --- | --- | --- | --- |
| CCC(C)(C)C(=O)OC1=C(c2ccc(Cl)cc2Cl)C(=O)OC12CCCCC2 [I-b-1, spirodiclofen] | 70% | 3 | 57 | 100 | 62 | 2 | 13 | 111 | 52 | 0 | 4.3 | 1.9 | 0.5 | 0.00 | 18 | 36 |
| CCOc1cc(C(C)(C)C)ccc1C1COC(c2c(F)cccc2F)=N1 (stereo not shown) [etoxazole, reference compound] | – | 5 | 18 | 52 | 86 | 1 | 10 | 221 | 203 | 87 | 2.0 | 12.3 | 3.9 | 1.01 | 25 | 25 |
